Molecules are shown by their SMILES.

The results in this text go back to ChEMBL document CHEMBL5724914, “Linking interpersonal differences in gut microbiota composition and drug biotransformation activity” (2024).

The nature of series [1]: The drug is tested on Z-026 corresponding to metagenome with ENA study accession number: PRJEB37062 and ENA sample accession number: ERS12561825 for biotransformation under anaerobic condition. The drug concentrations were measured over 9 timepoints collected between 0 and 24 hours of incubation by liquid-chromatography-coupled mass spectrometry (LC–MS). The following applies: 2 µM.

A short description of series [2]: The drug is tested on Z-025 corresponding to rabbit gut metagenome with ENA study accession number: PRJEB37062 and ENA sample accession number: ERS12561824 for biotransformation under anaerobic condition. The drug concentrations were measured over 9 timepoints collected between 0 and 24 hours of incubation by liquid-chromatography-coupled mass spectrometry (LC–MS). The note with it: 2 µM.

Series [3] in a line: The drug is tested on Z-023 corresponding to metagenome with ENA study accession number: PRJEB37062 and ENA sample accession number: ERS12561822 for biotransformation under anaerobic condition. The drug concentrations were measured over 9 timepoints collected between 0 and 24 hours of incubation by liquid-chromatography-coupled mass spectrometry (LC–MS). The note with it: 2 µM.

Series [4] is described as follows: The drug is tested on Z-012 corresponding to metagenome with ENA study accession number: PRJEB37062 and ENA sample accession number: ERS12561812 for biotransformation under anaerobic condition. The drug concentrations were measured over 9 timepoints collected between 0 and 24 hours of incubation by liquid-chromatography-coupled mass spectrometry (LC–MS). The following applies: 2 µM.

The nature of series [5]: The drug is tested on WLS-220 corresponding to human gut metagenome with ENA study accession number: PRJEB37062 and ENA sample accession number: ERS12561769 for biotransformation under anaerobic condition. The drug concentrations were measured over 9 timepoints collected between 0 and 24 hours of incubation by liquid-chromatography-coupled mass spectrometry (LC–MS). The note with it: 2 µM.

Series [6] can be described thus: The drug is tested on WLS-082 corresponding to human gut metagenome with ENA study accession number: PRJEB37062 and ENA sample accession number: ERS12561751 for biotransformation under anaerobic condition. The drug concentrations were measured over 9 timepoints collected between 0 and 24 hours of incubation by liquid-chromatography-coupled mass spectrometry (LC–MS). The following applies: 2 µM.

Series [7] is described as follows: The drug is tested on WLS-077 corresponding to human gut metagenome with ENA study accession number: PRJEB37062 and ENA sample accession number: ERS12561750 for biotransformation under anaerobic condition. The drug concentrations were measured over 9 timepoints collected between 0 and 24 hours of incubation by liquid-chromatography-coupled mass spectrometry (LC–MS). The note with it: 2 µM.

Series [8] is described as follows: The drug is tested on WLS-073 corresponding to human gut metagenome with ENA study accession number: PRJEB37062 and ENA sample accession number: ERS12561749 for biotransformation under anaerobic condition. The drug concentrations were measured over 9 timepoints collected between 0 and 24 hours of incubation by liquid-chromatography-coupled mass spectrometry (LC–MS). The following applies: 2 µM.

For series [9] the following is noted: human gut metagenome, 24 h, 2 µM.
The conditions of series [10]: human gut metagenome, 24 h, 2 µM. This is another data set of the same source.
The conditions of series [11]: human gut metagenome, 24 h, 2 µM. The source holds these as a separate data set.
The conditions of series [12]: human gut metagenome, 24 h, 2 µM. This is another data set of the same source.
The conditions of series [13]: human gut metagenome, 24 h, 2 µM. This is another data set of the same source.
For series [14] the following is noted: human gut metagenome, 24 h, 2 µM. The source holds these as a separate data set.
For series [15] the following is noted: human gut metagenome, 24 h, 2 µM. This is another data set of the same source.
The conditions of series [16]: human gut metagenome, 24 h, 2 µM. This is another data set of the same source.
The conditions of series [17]: human gut metagenome, 24 h, 2 µM. This is another data set of the same source.
The conditions of series [18]: human gut metagenome, 24 h, 2 µM. The source holds these as a separate data set.
The conditions of series [19]: human gut metagenome, 24 h, 2 µM. The source holds these as a separate data set.
For series [20] the following is noted: human gut metagenome, 24 h, 2 µM. The source holds these as a separate data set.
Also: call rule not given here.

Turning to `CN(CCOc1ccc(CC2SC(=O)NC2=O)cc1)c1ccccn1.O=C(O)/C=C\C(=O)O` (stereo not given) [ROSIGLITAZONE MALEATE], the “Bacterial Biotransformation” value in series [1] was “Compound NOT metabolized”; in series [2] it was “Compound metabolized”; in series [3], “Compound NOT metabolized”; in series [4], “Compound NOT metabolized”; in series [5], “Compound metabolized”; in series [6], “Compound NOT metabolized”. The “Bacterial Biotransformation” value is reported as “Compound NOT metabolized” in series [7]; “Compound NOT metabolized” in [8]; “Compound NOT metabolized” in series [9]; “Compound NOT metabolized” in series [10]; “Compound NOT metabolized” in [11]; “Compound metabolized” in [12]. For the same compound, the “Bacterial Biotransformation” value in [13] was “Compound metabolized”; in series [14], “Compound metabolized”; in [15] it was “Compound NOT metabolized”; in series [16], “Compound metabolized”; in series [17], “Compound metabolized”; in series [18], “Compound NOT metabolized”. The “Bacterial Biotransformation” value in [19] and in [20] was “Compound metabolized” each time.
For `CC(C)c1nc(N(C)S(C)(=O)=O)nc(-c2ccc(F)cc2)c1/C=C/[C@@H](O)C[C@@H](O)CC(=O)[O-].CC(C)c1nc(N(C)S(C)(=O)=O)nc(-c2ccc(F)cc2)c1/C=C/[C@@H](O)C[C@@H](O)CC(=O)[O-].[Ca+2]` [ROSUVASTATIN CALCIUM], the “Bacterial Biotransformation” value in [1] is “Compound NOT metabolized”; in series [2], “Compound NOT metabolized”; in [3], “Compound NOT metabolized”; in series [4], “Compound NOT metabolized”; in series [5] it was “Compound metabolized”; in [6], “Compound metabolized”. Besides, the “Bacterial Biotransformation” value in [7] is on record as “Compound metabolized”; in series [8] it was “Compound NOT metabolized”; in series [9] it was “Compound metabolized”; in series [10] it was “Compound NOT metabolized”; in series [11] it was “Compound metabolized”; in [12] it was “Compound metabolized”. For the same compound, the “Bacterial Biotransformation” value was “Compound NOT metabolized” in series [13]; “Compound metabolized” in series [14]; “Compound NOT metabolized” in series [15]; “Compound metabolized” in [16]; “Compound metabolized” in [17]; “Compound NOT metabolized” in [18]. Also, the “Bacterial Biotransformation” value in [19] and in series [20] was “Compound metabolized” in each case.
As to `O=C(O)c1cc(/N=N/c2ccc(S(=O)(=O)Nc3ccccn3)cc2)ccc1O` [SULFASALAZINE], the “Bacterial Biotransformation” value in series [1], in series [2], in series [3], in series [4], in series [5] and in [6] was “Compound metabolized” throughout. The “Bacterial Biotransformation” value in series [7], in series [8], in series [9], in series [10], in [11] and in series [12] was “Compound metabolized” in each case. Besides, the “Bacterial Biotransformation” value in series [13], in series [14], in series [15], in [16], in series [17] and in [18] was “Compound metabolized” each time. In addition, the “Bacterial Biotransformation” value in [19] and in series [20] was “Compound metabolized” in each case.
As to `C=CC[C@@H]1/C=C(\C)C[C@H](C)C[C@H](OC)[C@H]2O[C@@](O)(C(=O)C(=O)N3CCCC[C@H]3C(=O)O[C@H](/C(C)=C/[C@@H]3CC[C@@H](O)[C@H](OC)C3)[C@H](C)[C@@H](O)CC1=O)[C@H](C)C[C@@H]2OC.O` [TACROLIMUS], the “Bacterial Biotransformation” value in series [1] is on record as “Compound NOT metabolized”; in series [2], “Compound NOT metabolized”; in series [3], “Compound NOT metabolized”; in [4], “Compound NOT metabolized”; in series [5], “Compound metabolized”; in [6] it was “Compound metabolized”. In addition, the “Bacterial Biotransformation” value in series [7] is recorded as “Compound metabolized”; in series [8], “Compound metabolized”; in [9] it was “Compound NOT metabolized”; in series [10], “Compound metabolized”; in [11] it was “Compound metabolized”; in series [12] it was “Compound metabolized”. For the same compound, the “Bacterial Biotransformation” value in [13], in series [14], in series [15], in series [16], in series [17] and in [18] was “Compound metabolized” throughout. Besides, the “Bacterial Biotransformation” value in [19] and in series [20] was “Compound metabolized” each time.
For the compound `CCS(=O)(=O)CCn1c([N+](=O)[O-])cnc1C` [TINIDAZOLE], the “Bacterial Biotransformation” value in series [1], in series [2], in series [3], in series [4], in series [5] and in [6] was “Compound metabolized” in each case. Further, the “Bacterial Biotransformation” value in series [7], in series [8], in series [9], in series [10], in series [11] and in series [12] was “Compound metabolized” each time. Also, the “Bacterial Biotransformation” value in [13], in series [14], in series [15], in [16], in series [17] and in series [18] was “Compound metabolized” in each case. For the same compound, the “Bacterial Biotransformation” value in series [19] and in series [20] was “Compound metabolized” throughout.
